Earlier results on 1 molecule are cited in patent US20030168224A1, “Novel phosphorous-nitrogen compounds used as fireproofing agents in theroplastic molding materials and the production thereof” (priority 2000, published 2003).

For series [1] the following is noted: prior-art product.
For series [2] the following is noted: prior-art product. The source holds these as a separate data set.

On to `N.O=C1NC(=O)NP(=S)(S)N1` [ammonium 4,6-dioxo-2-thiooxohexahydro-1,3,5,2-λ^5-triazaphosphorinane-2-thiolate], for which the decomposition temperature in series [1] is 230 °C. Besides, in series [2], the “solubility in hot water” value is on record as “highly soluble”.
